Laboratory results taken from PubChem BioAssay (NCI).
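GI50: concentration for 50% inhibition of growth. TGI marks complete inhibition of growth.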

Tests used:
Assay in all cases: DTP human tumour cell line panel, 384-well format
NCI-H522 lung = system: NCI-H522 lung
MALME-3M melanoma = system: MALME-3M melanoma
UO-31 renal = system: UO-31 renal
BT-549 breast = system: BT-549 breast
SNB-75 CNS = system: SNB-75 CNS
SF-268 CNS = system: SF-268 CNS
HCC-2998 colon = system: HCC-2998 colon
HT29 colon = system: HT29 colon
MOLT-4 leukemia = system: MOLT-4 leukemia
A498 renal = system: A498 renal
CCRF-CEM leukemia = system: CCRF-CEM leukemia
SK-OV-3 ovarian = system: SK-OV-3 ovarian
HOP-92 NSCLC = system: HOP-92 NSCLC
RPMI-8226 leukemia = system: RPMI-8226 leukemia
NCI-H460 NSCLC = system: NCI-H460 NSCLC
OVCAR-3 ovarian = system: OVCAR-3 ovarian
EKVX NSCLC = system: EKVX NSCLC
SN12C renal = system: SN12C renal
SW-620 colon = system: SW-620 colon
CAKI-1 renal = system: CAKI-1 renal
RXF 393 renal = system: RXF 393 renal
SR leukemia = system: SR leukemia
OVCAR-8 ovarian = system: OVCAR-8 ovarian
LOX IMVI melanoma = system: LOX IMVI melanoma
K-562 leukemia = system: K-562 leukemia
MCF7 breast = system: MCF7 breast
NCI-H23 lung = system: NCI-H23 lung
ACHN renal = system: ACHN renal
UACC-257 melanoma = system: UACC-257 melanoma
KM12 colon = system: KM12 colon
SK-MEL-5 melanoma = system: SK-MEL-5 melanoma
SNB-19 CNS = system: SNB-19 CNS
NCI-H226 lung = system: NCI-H226 lung
MDA-MB-231 breast = system: MDA-MB-231 breast
SK-MEL-28 melanoma = system: SK-MEL-28 melanoma
U251 glioblastoma = system: U251 glioblastoma
OVCAR-4 ovarian = system: OVCAR-4 ovarian
SF-295 CNS = system: SF-295 CNS
A549 NSCLC = system: A549 NSCLC
NCI-H322M lung = system: NCI-H322M lung
DU-145 prostate = system: DU-145 prostate
T-47D breast = system: T-47D breast
M14 melanoma = system: M14 melanoma
UACC-62 melanoma = system: UACC-62 melanoma
IGROV1 ovarian = system: IGROV1 ovarian
PC-3 prostate = system: PC-3 prostate
786-0 renal = system: 786-0 renal
HCT-15 colon = system: HCT-15 colon
HCT-116 colon = system: HCT-116 colon
TK-10 renal = system: TK-10 renal
HS 578T breast = system: HS 578T breast
MDA-MB-468 breast = system: MDA-MB-468 breast
MDA-MB-435 melanoma = system: MDA-MB-435 melanoma
HL-60(TB) leukemia = system: HL-60(TB) leukemia
COLO 205 colon = system: COLO 205 colon
NCI/ADR-RES ovarian = system: NCI/ADR-RES ovarian
HOP-62 NSCLC = system: HOP-62 NSCLC
SF-539 CNS = system: SF-539 CNS

Nc1nc(-n2cccn2)nc(-n2cccn2)c1Br
GI50 (NCI-H522 lung): > 100 µM | TGI (NCI-H522 lung): > 100 µM | GI50 (MALME-3M melanoma): > 100 µM | TGI (MALME-3M melanoma): > 100 µM | GI50 (UO-31 renal): > 100 µM | TGI (UO-31 renal): > 100 µM | GI50 (BT-549 breast): > 100 µM | TGI (BT-549 breast): > 100 µM | GI50 (SNB-75 CNS): > 100 µM | TGI (SNB-75 CNS): > 100 µM | GI50 (SF-268 CNS): > 100 µM | TGI (SF-268 CNS): > 100 µM | GI50 (HCC-2998 colon): > 100 µM | TGI (HCC-2998 colon): > 100 µM | GI50 (HT29 colon): > 100 µM | TGI (HT29 colon): > 100 µM | GI50 (MOLT-4 leukemia): > 100 µM | TGI (MOLT-4 leukemia): > 100 µM | GI50 (A498 renal): > 100 µM | TGI (A498 renal): > 100 µM | GI50 (CCRF-CEM leukemia): > 100 µM | TGI (CCRF-CEM leukemia): > 100 µM | GI50 (SK-OV-3 ovarian): > 100 µM | TGI (SK-OV-3 ovarian): > 100 µM | GI50 (HOP-92 NSCLC): > 100 µM | TGI (HOP-92 NSCLC): > 100 µM | GI50 (RPMI-8226 leukemia): > 100 µM | TGI (RPMI-8226 leukemia): > 100 µM | GI50 (NCI-H460 NSCLC): > 100 µM | TGI (NCI-H460 NSCLC): > 100 µM | GI50 (OVCAR-3 ovarian): > 100 µM | TGI (OVCAR-3 ovarian): > 100 µM | GI50 (EKVX NSCLC): > 100 µM | TGI (EKVX NSCLC): > 100 µM | GI50 (SN12C renal): > 100 µM | TGI (SN12C renal): > 100 µM | GI50 (SW-620 colon): > 100 µM | TGI (SW-620 colon): > 100 µM | GI50 (CAKI-1 renal): > 100 µM | TGI (CAKI-1 renal): > 100 µM | GI50 (RXF 393 renal): > 100 µM | TGI (RXF 393 renal): > 100 µM | GI50 (SR leukemia): > 100 µM | TGI (SR leukemia): > 100 µM | GI50 (OVCAR-8 ovarian): > 100 µM | TGI (OVCAR-8 ovarian): > 100 µM | GI50 (LOX IMVI melanoma): > 100 µM | TGI (LOX IMVI melanoma): > 100 µM | GI50 (K-562 leukemia): > 100 µM | TGI (K-562 leukemia): > 100 µM | GI50 (MCF7 breast): > 100 µM | TGI (MCF7 breast): > 100 µM | GI50 (NCI-H23 lung): > 100 µM | TGI (NCI-H23 lung): > 100 µM | GI50 (ACHN renal): > 100 µM | TGI (ACHN renal): > 100 µM | GI50 (UACC-257 melanoma): > 100 µM | TGI (UACC-257 melanoma): > 100 µM | GI50 (KM12 colon): > 100 µM | TGI (KM12 colon): > 100 µM | GI50 (SK-MEL-5 melanoma): > 100 µM | TGI (SK-MEL-5 melanoma): > 100 µM | GI50 (SNB-19 CNS): > 100 µM | TGI (SNB-19 CNS): > 100 µM | GI50 (NCI-H226 lung): > 100 µM | TGI (NCI-H226 lung): > 100 µM | GI50 (MDA-MB-231 breast): > 100 µM | TGI (MDA-MB-231 breast): > 100 µM | GI50 (SK-MEL-28 melanoma): > 100 µM | TGI (SK-MEL-28 melanoma): > 100 µM | GI50 (U251 glioblastoma): > 100 µM | TGI (U251 glioblastoma): > 100 µM | GI50 (OVCAR-4 ovarian): > 100 µM | TGI (OVCAR-4 ovarian): > 100 µM | GI50 (SF-295 CNS): > 100 µM | TGI (SF-295 CNS): > 100 µM | GI50 (A549 NSCLC): > 100 µM | TGI (A549 NSCLC): > 100 µM | GI50 (NCI-H322M lung): > 100 µM | TGI (NCI-H322M lung): > 100 µM | GI50 (DU-145 prostate): > 100 µM | TGI (DU-145 prostate): > 100 µM | GI50 (T-47D breast): > 100 µM | TGI (T-47D breast): > 100 µM | GI50 (M14 melanoma): > 100 µM | TGI (M14 melanoma): > 100 µM | GI50 (UACC-62 melanoma): > 100 µM | TGI (UACC-62 melanoma): > 100 µM | GI50 (IGROV1 ovarian): > 100 µM | TGI (IGROV1 ovarian): > 100 µM | GI50 (PC-3 prostate): > 100 µM | TGI (PC-3 prostate): > 100 µM | GI50 ([…]-0 renal): > 100 µM | TGI (786-0 renal): > 100 µM | GI50 (HCT-15 colon): > 100 µM | TGI (HCT-15 colon): > 100 µM | GI50 (HCT-116 colon): > 100 µM | TGI (HCT-116 colon): > 100 µM | GI50 (TK-10 renal): > 100 µM | TGI (TK-10 renal): > 100 µM | GI50 (HS 578T breast): > 100 µM | TGI (HS 578T breast): > 100 µM | GI50 (MDA-MB-468 breast): > 100 µM | TGI (MDA-MB-468 breast): > 100 µM | GI50 (MDA-MB-435 melanoma): > 100 µM | TGI (MDA-MB-435 melanoma): > 100 µM | GI50 (HL-60(TB) leukemia): > 100 µM | TGI (HL-60(TB) leukemia): > 100 µM | GI50 (COLO 205 colon): > 100 µM | TGI (COLO 205 colon): > 100 µM | GI50 (NCI/ADR-RES ovarian): > 100 µM | TGI (NCI/ADR-RES ovarian): > 100 µM | GI50 (HOP-62 NSCLC): > 100 µM | TGI (HOP-62 NSCLC): > 100 µM | GI50 (SF-539 CNS): > 100 µM | TGI (SF-539 CNS): > 100 µM
